From patent US11034673B2, “(S)-N-(3-(6-isopropoxypyridin-3-yl)-1H-indazol-5-yl)-1-(2-(4-(4-(1-methyl-1H-1,2,4-triazol-3-yl)phenyl)-3,6-dihydropyridin-1(2H)-yl)-2-oxoethyl)-3-(methylthio)pyrrolidine-3-carboxamide compositions for pharmaceutical preparations” (Merck Sharp & Dohme Corp., priority 2014, dated 2021)

Test: solubility of crystalline form
Assay type: physicochemical

Question: With CS[C@@]1(C(=O)Nc2ccc3[nH]nc(-c4ccc(OC(C)C)nc4)c3c2)CCN(CC(=O)N2CC=C(c3ccc(-c4ncn(C)n4)cc3)CC2)C1 [crystalline hydrate Form 2, (S)—N-(3-(6-isopropoxypyridin-3-yl)-1H-indazol-5-yl)-1-(2-(4-(4-(1-methyl-1H-1,2,4-triazol-3-yl)phenyl)-3,6-dihydropyridin-1(2H)-yl)-2-oxoethyl)-3-(methylthio)pyrrolidine-3-carboxamide] as the compound, how does the solubility read?
Answer: Its solubility is “poor solubility”.
